We go through 5 compounds from BindingDB's records for patent US20240067645 (Lg Chem, 2024).

The target in this assay is Diacylglycerol kinase alpha (Homo sapiens, UniProt P23743). Kind of assay: Inhibitory Effect Against DGKalpha Enzyme. As to the method:
First, 3×OAG (3 mM)/ATP (0.45 mM) substrate solution was prepared from 1× substrate assay buffer (40 mM MOPS (pH 7.2), 20 mM MgCl2, 1 mM DTT, 0.4 mM CaCl2), 3 mM sodium deoxycholate, 100 mM NaCl, 0.1 mg/mL BSA, 0.12% NP-40), and vortexed thoroughly for 3 minutes to induce detergent-lipid micelle formation. Then, 3×DGKα (7.5 nM) enzyme solution was prepared from 2× enzyme assay buffer (80 mM MOPS (pH 7.2), 2 mM DTT, 200 mM NaCl, 0.2 mg/mL BSA) and vortexed for a short time. After preparing the above two solutions, a half-area opaque 96-well assay plate was prepared, and 10 μL of 3× diluted compound solution (30 μM to 0 μM) was transferred to each well. Next, 10 μL of 3×DGK enzyme solution was transferred to the same plate, mixed by pipetting, and then 10 μL of 3×OAG/ATP substrate solution was added to the assay plate and mixed well. The plate was incubated at room temperature for 20 minutes for the enzyme reaction. Next, 15 μL of ADP-Glo reagent was added to each well and mixed by pipetting, followed by incubating the plate at room temperature for 40 minutes to deplete the remaining ATPs. After this step, 30 μL of kinase detection reagent was added and mixed, and the plate was incubated at room temperature for an additional 20 minutes and luminescence was measured by Envision to calculate the IC50 value of each compound.

Chain of Diacylglycerol kinase alpha (P23743 whole entry): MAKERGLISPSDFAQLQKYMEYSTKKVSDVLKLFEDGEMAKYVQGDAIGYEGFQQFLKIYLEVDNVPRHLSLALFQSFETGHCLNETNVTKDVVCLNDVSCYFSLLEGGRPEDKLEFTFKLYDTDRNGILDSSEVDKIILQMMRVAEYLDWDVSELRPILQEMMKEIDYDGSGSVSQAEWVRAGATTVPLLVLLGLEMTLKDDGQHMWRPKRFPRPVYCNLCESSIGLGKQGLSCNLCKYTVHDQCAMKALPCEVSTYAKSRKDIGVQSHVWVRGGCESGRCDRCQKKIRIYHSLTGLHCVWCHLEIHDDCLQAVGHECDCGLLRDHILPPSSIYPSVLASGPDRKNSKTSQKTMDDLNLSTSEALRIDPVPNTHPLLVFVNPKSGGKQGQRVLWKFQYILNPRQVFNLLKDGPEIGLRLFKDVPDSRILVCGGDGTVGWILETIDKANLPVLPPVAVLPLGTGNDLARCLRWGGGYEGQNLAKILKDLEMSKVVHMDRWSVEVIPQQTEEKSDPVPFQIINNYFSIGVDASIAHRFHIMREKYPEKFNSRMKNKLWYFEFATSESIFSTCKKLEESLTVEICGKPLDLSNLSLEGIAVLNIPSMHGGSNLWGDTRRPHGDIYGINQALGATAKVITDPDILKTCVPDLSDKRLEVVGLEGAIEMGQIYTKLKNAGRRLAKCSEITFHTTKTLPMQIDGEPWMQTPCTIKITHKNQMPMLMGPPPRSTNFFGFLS

As a reminder, the IC50 is the concentration that gives 50% inhibition. A low value points to greater potency in that assay. `Cn1c(=O)c(=O)n(C2CCN(Cc3ccc(OC(F)(F)F)cc3)CC2)c2ncc(Br)cc21` [US20240067645, Example 34] gave an IC50 of less than 300 nM.

`Cn1c(=O)c(=O)n(C2CCN(Cc3ccc(F)c(Cl)c3)CC2)c2ncc(Cl)cc21` [US20240067645, Example 42] returned an IC50 of less than 300 nM.

`Cn1c(=O)c(=O)n(C2CCN(Cc3cccc(Cl)c3)CC2)c2ncc(Cl)cc21` [US20240067645, Example 27] had a 50% inhibitory concentration (IC50) of less than 300 nM.

The compound `Cn1c(=O)c(=O)n(C2CCN(Cc3cccc4c(Cl)cccc34)CC2)c2ncc(Cl)cc21` [US20240067645, Example 35] showed a concentration for half-maximal inhibition (IC50) of less than 300 nM.

For `Cn1c(=O)c(=O)n(C2CCN(Cc3ccc(OC(F)(F)F)c(Cl)c3)CC2)c2ncc(Cl)cc21` [US20240067645, Example 43], the IC50 was less than 300 nM.
